Assay results: patent US9944597B2, “Polysubstituted pyrroles having microtubule-disrupting, cytotoxic and antitumor activities and methods of use thereof” (THE BOARD OF REGENTS OF THE UNIVERSITY OF TEXAS SYSTEM, priority 2013, dated 2018)
Read-outs that look alike come from different tables or passages of the source.

How the values were obtained:
[1] = system: SK-OV-3 (human ovarian cancer cells); experiment: Antiproliferative SRB assay, SK-OV-3; format: cell-based
Procedure: (§1) Cell Culture. Various representative cancer and other cell lines were sourced and grown as described previously [Mooberry, S. L., et al., Mol. Pharm. 72, 132-140 (2007)]. MDA-MB-435 (human melanoma cancer cells), and MDA-MB-231 (human breast cancer cells) were grown in IMEM Richter's Medium (Life Technologies, Grand Island, N.Y.) with 10% FBS (Hyclone, Logan, Utah) and 25 μg/mL gentamicin sulfate (Life Technologies). A-10 (embryonic rat vascular smooth muscle cells) and HeLa (human cervical cancer cells), SK-OV-3 (human ovarian cancer cells) and SK-OV-3-MDR-1-M6/6 (a clone of the SK-OV-3 that was generated from SK-OV-3 cells by adenovirus-mediated expression of MDR1) were grown in Basal Medium Eagle (BME, Sigma-Aldrich, St. Louis, Mo.) containing Earle's salts, 50 μg/ml gentamicin sulfate, and 10% FBS. HeLa cells (a single-cell clone derived from transduction of HeLa cells with wild-type (WT) βIII-tubulin) were grown in Dulbecco's Modified Eagle's Medium (DMEM, Life Technologies) containing 50 μg/mL gentamicin sulfate and 10% FBS.
(§2) Antiproliferative Effects. The pyrrole compounds were evaluated for their antiproliferative effects in a panel of cancer cell lines. Cells were plated into 96-well plates at predetermined densities and allowed to attach and proliferate for 24 hr, and then the compounds were added. After a 48 hr exposure to the compounds, the cells were fixed with trichloroacetic acid and cellular protein was determined using the sulforhodamine B (SRB) assay (Skehan et al., J. Natl. Cancer Inst. 82, 1107-12, (1990); Boyd and Paull Drug Devel. Res. 34, 91-109, (1995)). Concentration response curves were constructed, and the IC50 (the concentration required to inhibit proliferation by 50%) values were determined from the linear portions of the log concentration-response curves as described previously [Tinley, T. L., et al., Cancer Res. 63, 3211-3220, (2003)] as shown in Table 48.
(§3) First, drug resistance mediated by the expression of βIII tubulin was evaluated in an isogenic HeLa cell line pair. Expression of the βIII tubulin isotype is associated with clinical drug resistance to the taxanes in ovarian cancer, non small-cell lung cancer and breast cancer [Galmarini, C. M., et al., Clin. Cancer Res. 14, 4511-4516 (2008)]. Secondly, drug resistance mediated by the expression of the drug efflux pump protein, Pgp, was evaluated in the isogenic SK-OV-3 cell line pair. […] All tubulin-binding anticancer drugs used currently in the clinic, except cabazitaxel, are substrates for Pgp, thus limiting their utility in drug resistant tumors [Penson, R. T., et al., Gynecol. Oncol. 93, 98-106 (2004)]. Differences in sensitivity between the parent and transformed cell line, indicative of resistance, was determined by calculating relative resistance (Rr) values in the two pairs of isogenic cell lines (dividing the IC50 of the expressing cell line by the IC50 of the parental cell line).

[2] = system: HeLa (human cervical cancer cells); experiment: Antiproliferative SRB assay, HeLa; format: cell-based
Procedure: as §1, §2
(§4) First, drug resistance mediated by the expression of βIII tubulin was evaluated in an isogenic HeLa cell line pair. Expression of the βIII tubulin isotype is associated with clinical drug resistance to the taxanes in ovarian cancer, non small-cell lung cancer and breast cancer [Galmarini, C. M., et al., Clin. Cancer Res. 14, 4511-4516 (2008)]. Secondly, drug resistance mediated by the expression of the drug efflux pump protein, Pgp, was evaluated in the isogenic SK-OV-3 cell line pair. The expression of Pgp can lead to lower intracellular drug concentrations and diminished cytotoxic effects both in vitro and in vivo. All tubulin-binding anticancer drugs used currently in the clinic, except cabazitaxel, are substrates for Pgp, thus limiting their utility in drug resistant tumors [Penson, R. T., et al., Gynecol. Oncol. 93, 98-106 (2004)]. Differences in sensitivity between the parent and transformed cell line, indicative of resistance, was determined by calculating relative resistance (Rr) values in the two pairs of isogenic cell lines (dividing the IC50 of the expressing cell line by the IC50 of the parental cell line).

A-10 cells = experiment: Cellular microtubule loss by indirect immunofluorescence; format: cell-based, rat; settings: read-out: EC50 Values (nM) for Microtubule Loss in A-10 cells
Procedure: The effects of representative compounds on cellular microtubules were evaluated in A-10 (embryonic rat vascular smooth muscle cell line) cells using indirect immunofluorescence techniques as previously described (Tinley et al., Cancer Res. 63, 3211-20 (2003)). Cells were visualized using a Nikon Eclipse 80i fluorescence microscope and NIS Elements software. Changes in both interphase and mitotic microtubules were noted and photographed. The EC50 values, the concentration that causes approximately 50% loss of interphase microtubules was determined by evaluating a range of concentrations of each compound and the percent cellular microtubule depolymerization that was observed visually at each concentration was noted.
Microtubules were visualized by indirect immunofluorescence using a β-tubulin antibody, and the DNA was visualized with DAPI. A representative concentration response curve for NT-7-16 is also shown in FIG. 1 that was used to calculate its corresponding EC50 for microtubule loss. Concentration response curves for microtubule loss were plotted using data from at least three experiments for each compound and the corresponding EC50 values for microtubule loss are presented in Table 50.

HeLa WT-β-III cells = experiment: Antiproliferative SRB assay, βIII-tubulin expressing HeLa; format: cell-based, human; settings: for IC50: Table 49, βIII tubulin expressing line, 48 hr, SRB assay; for Rr (β-III): relative resistance: IC50 of expressing line divided by IC50 of parental HeLa
Procedure: as §1, §2, §4

[3] = target: T1, purified porcine brain tubulin (Sus scrofa, UniProt P02554); experiment: Inhibition of polymerization of purified tubulin (absorbance at 340 nm); format: biochemical
T1 construct: of Purified Porcine Brain Tubulin; from tissue; host or cells: porcine brain

[4] = system: MDA-MB-435 (human melanoma cancer cells); experiment: Antiproliferative SRB assay, MDA-MB-435; format: cell-based; settings: read-out: MDA-MB-435 Anti-Proliferative Activity, IC50
Procedure: as §1, §2

SK-OV-3-MDR-1-6/6 cells = experiment: Antiproliferative SRB assay, Pgp expressing SK-OV-3; format: cell-based, human; settings: for IC50: Table 49, Pgp expressing line, 48 hr, SRB assay; for Rr (Pgp): relative resistance: IC50 of expressing line divided by IC50 of parental SK-OV-3
Procedure: as §1, §2, §3

[5] = Homo sapiens, SK-OV-3, Table 48, 48 hr exposure, read-out: SK-OV-3 Anti-Proliferative Activity, IC50
[6] = Homo sapiens, SK-OV-3, Table 49, parental line, 48 hr, read-out: SK-OV-3 IC50
[7] = Homo sapiens, HeLa, Table 48, 48 hr exposure, read-out: HeLa Anti-Proliferative Activity, IC50
[8] = Homo sapiens, HeLa, Table 49, parental line, 48 hr, read-out: HeLa IC50
[9] = Rattus norvegicus, A10, Table 50, concentration causing approximately 50% loss of interphase microtubules
[10] = Homo sapiens, MDA-MB-435, Table 48, 48 hr exposure, SRB assay
[11] = Homo sapiens, MDA-MB-435, Table 52

T1 sequence (P02554 whole entry): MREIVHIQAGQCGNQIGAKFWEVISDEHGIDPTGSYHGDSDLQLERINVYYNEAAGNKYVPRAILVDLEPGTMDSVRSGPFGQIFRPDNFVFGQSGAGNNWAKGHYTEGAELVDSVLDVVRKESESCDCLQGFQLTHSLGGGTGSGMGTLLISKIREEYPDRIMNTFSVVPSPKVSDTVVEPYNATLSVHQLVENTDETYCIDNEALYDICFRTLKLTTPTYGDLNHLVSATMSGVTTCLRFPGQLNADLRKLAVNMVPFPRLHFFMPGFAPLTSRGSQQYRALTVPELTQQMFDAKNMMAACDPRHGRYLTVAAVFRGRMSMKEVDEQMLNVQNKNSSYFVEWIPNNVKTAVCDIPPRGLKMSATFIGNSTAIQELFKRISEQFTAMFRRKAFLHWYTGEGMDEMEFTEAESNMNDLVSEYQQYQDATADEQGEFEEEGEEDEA
T1 sequence (P02550 whole entry partner): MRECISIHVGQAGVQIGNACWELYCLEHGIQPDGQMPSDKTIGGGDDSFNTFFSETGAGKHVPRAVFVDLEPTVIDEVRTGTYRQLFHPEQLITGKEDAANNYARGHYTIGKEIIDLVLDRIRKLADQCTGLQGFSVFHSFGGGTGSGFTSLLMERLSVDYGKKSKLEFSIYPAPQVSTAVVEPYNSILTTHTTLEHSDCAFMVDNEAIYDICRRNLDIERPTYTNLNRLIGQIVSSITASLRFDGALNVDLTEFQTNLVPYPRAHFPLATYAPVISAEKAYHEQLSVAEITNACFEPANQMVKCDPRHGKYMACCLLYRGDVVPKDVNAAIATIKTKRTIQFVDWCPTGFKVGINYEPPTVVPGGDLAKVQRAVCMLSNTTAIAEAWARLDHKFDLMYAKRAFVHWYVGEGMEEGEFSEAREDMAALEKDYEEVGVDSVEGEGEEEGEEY

Row | IC50 [1, 5] | IC50 [2, 7] | EC50 (A-10 cells; [9]) | melting point | IC50 (HeLa WT-β-III cells; Homo sapiens, HeLa) | IC50 [4, 10] | IC50 [4, 11] | IC50 (SK-OV-3-MDR-1-6/6 cells; Homo sapiens, SK-OV-3) | Compound | Rr (β-III) (HeLa WT-β-III cells) | Rr (Pgp) (SK-OV-3-MDR-1-6/6 cells) | IC50 [1, 6] | IC50 [2, 8] | further results
1 | 23.1 ± 1.8 nM | 19.5 ± 0.6 nM | 36 nM | 176 to 178 °C | 15.6 ± 0.4 nM | 15.8 ± 0.9 nM | 15.8 ± 0.9 nM | 22.4 ± 0.9 nM | CCOC(=O)c1[nH]c(CN)c(-c2ccc(OC)c(OC)c2OC)c1Br [Example 13, 5-(Aminomethylene)-3-Bromo-4-(2,3,4-trimethoxyphenyl)-1H-pyrrole 2-carboxylic acid ethyl ester] | 0.8 | 1.0 | 23.1 ± 1.8 nM | 19.5 ± 0.6 nM | 
2 | 3020 nM | 2450 nM | 4900 nM | 143 to 145 °C | 2010 nM | 2630 nM | 2630 nM | 3570 nM | CCCNC=C1NC(C(=O)OCC)C(Br)=C1c1ccc(OC)c(OC)c1OC (centres unmarked) [Example 17, 3-Bromo-5-(N-Propylaminomethylene)-4-(2,3,4-trimethoxyphenyl)-1H-pyrrole 2-carboxylic acid ethyl ester] | 0.8 | 1.2 | 3020 nM | 2450 nM | 
3 | 20.7 ± 1.9 nM | 14.3 ± 0.8 nM | 31 nM | 166 to 168 °C | 11.2 ± 0.4 nM | 12.6 ± 0.4 nM | 12.6 ± 0.4 nM | 19 ± 1 nM | CCCNC=C1NC(C(=O)OCC)C(Cl)=C1c1ccc(OC)c(OC)c1OC (centres unmarked) [Example 18, 3-Chloro-5-(N-Propylaminomethylene)-4-(2,3,4-Trimethoxyphenyl)-1H-pyrrole 2-carboxylic acid ethyl ester] | 0.8 | 0.9 | 20.7 ± 1.9 nM | 14.3 ± 0.8 nM | 

The remaining lines, values behind:

Row | Compound | IC50 [1, 5] | IC50 [2, 7] | EC50 (A-10 cells; [9]) | melting point | IC50 (HeLa WT-β-III cells; Homo sapiens, HeLa) | IC50 [4, 10] | IC50 [4, 11] | IC50 (SK-OV-3-MDR-1-6/6 cells; Homo sapiens, SK-OV-3) | Rr (β-III) (HeLa WT-β-III cells) | Rr (Pgp) (SK-OV-3-MDR-1-6/6 cells) | IC50 [1, 6] | IC50 [2, 8] | further results
4 | CCOC(=O)c1[nH]c(C=NO)c(-c2ccc(OC)c(OC)c2OC)c1Br (mixture of isomers) [Example 10a, Cis/Trans-3-Bromo-4-(2,3,4-trimethoxyphenyl)-5-oximino-1H-pyrrole 2-carboxylic acid ethyl ester] |  |  |  |  |  |  |  |  | 0.9 | 1.2 |  |  | IC50 ([1]; Table 48, 48 hr exposure, read-out: SK-OV-3 Anti-Proliferative Activity, IC50): 5.3 ± 0.2 nM; IC50 ([1]; Table 49, parental line, 48 hr, read-out: SK-OV-3 IC50): 5.3 ± 0.2 nM; IC50 ([2]; Table 48, 48 hr exposure, read-out: HeLa Anti-Proliferative Activity, IC50): 5 ± 0.3 nM; IC50 ([2]; Table 49, parental line, 48 hr, read-out: HeLa IC50): 5 ± 0.3 nM; EC50 (A-10 cells; Table 50, concentration causing approximately 50% loss of interphase microtubules): 9.8 nM; EC50 (A-10 cells; Table 52): 8.9 nM; IC50 (HeLa WT-β-III cells): 4.1 ± 1 nM; % Inhibition of Tubulin Polymerization ([3]; compound at 2 μM): 75%; IC50 ([4]; Table 48, 48 hr exposure, SRB assay): 2.7 ± 0.2 nM; IC50 ([4]; Table 52): 2.7 ± 0.2 nM; IC50 (SK-OV-3-MDR-1-6/6 cells): 6.6 ± 1.2 nM
5 | CCOC(=O)c1[nH]c(C=O)c(-c2ccc(OC)c(OC)c2OC)c1Cl [Example 3, 3-Chloro-4-(2,3,4-trimethoxyphenyl)-5-formyl-1H-pyrrole 2-carboxylic acid ethyl ester] | 67.8 ± 16.2 nM | 43.5 ± 1.7 nM | 107 nM | 193 to 195 °C | 106 ± 6.6 nM | 64 ± 8.5 nM | 64 ± 8.5 nM | 76 ± 22.9 nM | 2.4 | 1.1 | 67.8 ± 16.2 nM | 43.5 ± 1.7 nM | 
6 | CCOC(=O)c1[nH]c(C=O)c(-c2ccc(OC)c(OC)c2OC)c1I [Example 4, 3-Iodo-4-(2,3,4-trimethoxyphenyl)-5-formyl-1H-pyrrole 2-carboxylic acid ethyl ester] | 66.9 ± 5.8 nM | 39.9 ± 3.1 nM | 129 nM | 126 to 128 °C | 100 ± 2 nM | 76 ± 0.6 nM | 76 ± 0.6 nM | 87 ± 23.6 nM | 2.5 | 1.3 | 66.9 ± 5.8 nM | 39.9 ± 3.1 nM | 
7 | CCOC(=O)c1[nH]c(CN)c(-c2ccc(OC)c(OC)c2OC)c1Cl [Example 14] | 27.8 ± 1.3 nM | 15 ± 0.5 nM | 35 nM | 143 to 145 °C | 12.3 ± 0.3 nM | 13 ± 0.4 nM | 13 ± 0.4 nM | 23.6 ± 1 nM | 0.8 | 0.8 | 27.8 ± 1.3 nM | 15 ± 0.5 nM | 
8 | CCOC(=O)c1[nH]c(Br)c(-c2ccc(OC)c(OC)c2OC)c1Br [Example 22, 3,5-Dibromo-4-(2,3,4-trimethoxyphenyl)-1H-pyrrole-2-carboxylic acid ethyl ester] | 15.2 ± 0.8 nM | 12.9 ± 0.8 nM | 34.5 nM |  | 15.7 ± 0.2 nM | 10.4 ± 0.5 nM |  | 10.6 ± 0.3 nM | 1.2 | 0.7 | 15.2 ± 0.8 nM | 12.9 ± 0.8 nM | inhibition at 1 µM ([3]; compound at 1 μM): 53%
9 | CCOC(=O)c1[nH]c(Cl)c(-c2ccc(OC)c(OC)c2OC)c1Cl [Example 23, 3,5-Dichloro-4-(2,3,4-Trimethoxyphenyl)-1H-pyrrole-2-carboxylic acid ethyl ester] | 211 nM | 131 ± 8 nM | 1060 nM | 151 to 153 °C | 137 nM | 116 ± 4.3 nM |  | 231 ± 118 nM | 1.0 | 1.1 | 211 nM | 131 ± 8 nM | 
